Laboratory results published in ChEMBL document CHEMBL1152303, “Synthesis and biological evaluation of a series of liver-selective phosphonic acid thyroid hormone receptor agonists and their prodrugs” (J Med Chem, 2008).
Values belong to the molecule of their own block, whether it stands above or below them.

What was measured:
[1] = test system: Rattus norvegicus; assay: Reduction in total plasma cholesterol level in cholesterol-fed Sprague-Dawley rat at 0.2 mg/kg, ip after 24 hrs; assay type: functional; design: scale not given: the % may be the effect or the level left; conditions: route intraperitoneal
[2] = target: T1, Thyroid hormone receptor alpha (Homo sapiens, UniProt P10827)
T1 sequence (P10827 whole entry): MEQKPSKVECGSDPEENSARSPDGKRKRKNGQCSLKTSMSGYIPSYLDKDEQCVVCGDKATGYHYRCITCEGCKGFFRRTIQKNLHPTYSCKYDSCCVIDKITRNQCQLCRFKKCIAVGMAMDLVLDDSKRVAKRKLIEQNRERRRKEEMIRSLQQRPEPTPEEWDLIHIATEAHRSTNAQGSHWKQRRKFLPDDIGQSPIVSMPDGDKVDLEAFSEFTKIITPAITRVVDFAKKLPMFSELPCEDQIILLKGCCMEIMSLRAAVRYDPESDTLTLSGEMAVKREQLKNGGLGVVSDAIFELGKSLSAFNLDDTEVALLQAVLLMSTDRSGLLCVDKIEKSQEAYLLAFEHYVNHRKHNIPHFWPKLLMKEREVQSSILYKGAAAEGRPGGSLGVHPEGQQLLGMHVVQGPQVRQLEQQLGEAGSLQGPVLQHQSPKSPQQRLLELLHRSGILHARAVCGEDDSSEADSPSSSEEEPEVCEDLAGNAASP
Description: Displacement of [125I]3,5,3'-triiodo-L-thyronine from His-tagged human recombinant TRalpha1 by scintillation proximity assay

[3] = target: T2, Thyroid hormone receptor beta (Homo sapiens, UniProt P10828)
T2 sequence (P10828 whole entry): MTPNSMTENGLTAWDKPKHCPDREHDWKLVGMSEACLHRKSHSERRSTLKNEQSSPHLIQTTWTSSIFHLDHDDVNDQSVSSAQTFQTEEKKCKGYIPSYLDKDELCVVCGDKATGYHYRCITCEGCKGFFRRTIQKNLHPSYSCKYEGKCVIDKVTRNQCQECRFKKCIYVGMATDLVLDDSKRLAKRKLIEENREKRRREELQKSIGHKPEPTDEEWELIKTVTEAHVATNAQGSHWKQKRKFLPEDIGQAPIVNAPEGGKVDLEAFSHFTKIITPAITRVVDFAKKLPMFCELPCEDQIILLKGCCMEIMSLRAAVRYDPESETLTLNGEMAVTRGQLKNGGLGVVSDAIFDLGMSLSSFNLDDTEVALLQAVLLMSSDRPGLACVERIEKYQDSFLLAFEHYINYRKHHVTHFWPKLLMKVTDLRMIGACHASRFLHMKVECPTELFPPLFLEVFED
Description: Displacement of [125I]3,5,3'-triiodo-L-thyronine His-tagged human recombinant TRbeta1 by scintillation proximity assay

[4] = test system: Rattus norvegicus; assay: Reduction in total plasma cholesterol level in cholesterol-fed Sprague-Dawley rat at 0.5 mg/kg, po after 24 hrs; assay type: functional; design: scale not given: the % may be the effect or the level left
[5] = test system: Rattus norvegicus; assay: Reduction in total plasma cholesterol level in cholesterol-fed orally dosed Sprague-Dawley rat after 24 hrs; assay type: functional; conditions: po
[6] = Metabolic stability in human liver S9 fraction assessed as activation rate at 100 uM after 1 hr; assay type: ADME, subcellular; conditions: s9, 1 h
[7] = Metabolic stability in human S9 liver fraction assessed as monoacid levels at 100 uM after 1 hr; assay type: ADME, subcellular; conditions: s9, 1 h
[8] = Metabolic stability in human S9 liver fraction assessed as prodrug remaining at 100 uM after 1 hr; assay type: ADME, subcellular; conditions: s9, 1 h
[9] = test system: Rattus norvegicus; assay: Reduction in total plasma cholesterol level in cholesterol-fed orally dosed Sprague-Dawley rat after 24 hrs relative to control; assay type: functional; design: scale not given: the % may be the effect or the level left
[10] = test system: Rattus norvegicus; assay: Agonist activity at thyroid hormone receptor in Sprague-Dawley rat assessed as liver mGPDH activity at 1 mg/kg administered through osmotic pump infusion per ug protein; assay type: functional
[11] = test system: Rattus norvegicus; assay: Agonist activity at thyroid hormone receptor in Sprague-Dawley rat assessed as heart mGPDH activity at 1 mg/kg administered through osmotic pump infusion per ug protein; assay type: functional

Ki [2]: 30.5 nM
Compound: CCC(C)c1cc(Cc2c(C)cc(OCP(=O)(O)O)cc2C)ccc1O (stereo not given)
Activity [1]: 20.1%

Compound: CC(C)c1cc(Oc2c(Br)cc(OCP(=O)(O)O)cc2Br)ccc1O
Activity [1]: 42.6%

Compound: CC(C)c1cc(Oc2c(I)cc(OCP(=O)(O)O)cc2I)ccc1O
Activity [1]: 44.7%

Ki [2]: 183 nM
Ki [3]: 25.4 nM
Compound: Cc1cc(OCP(=O)(O)O)cc(C)c1Oc1ccc(O)c(C(C)C)c1

Compound: CCOC(=O)OCOP(=O)(COc1cc(C)c(Cc2ccc(O)c(C(C)C)c2)c(C)c1)OCOC(=O)OCC
Activity [4]: 24%

Stability [6]: 73 pmol/min/mg
Stability [7]: 6%
Stability [8]: 70%
Compound: CCOC(=O)CNP(=O)(COc1cc(C)c(Cc2ccc(O)c(C(C)C)c2)c(C)c1)NCC(=O)OCC
Activity [4]: 42%
ED50 [5]: 0.1 mg/kg
Activity [9]: 48%

Compound: CCOC(=O)[C@H](C)NP(=O)(COc1cc(C)c(Cc2ccc(O)c(C(C)C)c2)c(C)c1)N[C@@H](C)C(=O)OCC
Activity [4]: 42%

Compound: CCOC(=O)C(C)(C)NP(=O)(COc1cc(C)c(Cc2ccc(O)c(C(C)C)c2)c(C)c1)NC(C)(C)C(=O)OCC
Activity [4]: 23%

Compound: O=P(O)(O)Cc1cc(I)c(Oc2ccc(O)c(I)c2)c(I)c1
Activity [10]: 5.38 U/min
Activity [11]: 1.74 U/min

Compound: CC(=O)SCCOP(=O)(COc1cc(C)c(Cc2ccc(O)c(C(C)C)c2)c(C)c1)OCCSC(C)=O
Activity [4]: 20%

Compound: Cc1cc(OCP(=O)(OCOC(=O)OC(C)C)OCOC(=O)OC(C)C)cc(C)c1Cc1ccc(O)c(C(C)C)c1
Activity [4]: 24%

Ki [2]: 0.51 nM
Ki [3]: 0.47 nM
Compound: Cc1cc(NC(=O)C(=O)O)cc(C)c1Oc1ccc(O)c(C(C)C)c1

Ki [2]: 28.4 nM
Ki [3]: 9.1 nM
Compound: Cc1cc(NCP(=O)(O)O)cc(C)c1Cc1ccc(O)c(C(C)C)c1
Activity [1]: 32.3%

Compound: CCc1cc(Cc2c(C)cc(OCP(=O)(O)O)cc2C)ccc1O
Activity [1]: 7.5%

Ki [2]: 42.1 nM
Ki [3]: 2.5 nM
Compound: CC(C)c1cc(Oc2c(Br)cc(CCP(=O)(O)O)cc2Br)ccc1O
Activity [1]: 34.5%

Compound: CCOC(=O)[C@H](Cc1ccccc1)NP(=O)(COc1cc(C)c(Cc2ccc(O)c(C(C)C)c2)c(C)c1)N[C@@H](Cc1ccccc1)C(=O)OCC
Activity [4]: 0%

Compound: CCOC(=O)[C@@H](NP(=O)(COc1cc(C)c(Cc2ccc(O)c(C(C)C)c2)c(C)c1)N[C@H](C(=O)OCC)C(C)C)C(C)C
Activity [4]: 13%
